Assay results published in article PMC8775250, “Cryo-EM Structure of the Rhodobacter sphaeroides Light-Harvesting 2 Complex at 2.1 Å” (Biochemistry, 2021).

Molecular target: T1, Rba. sphaeroides LH2 complex (light-harvesting 2 antenna, LH2 αβ) (Cereibacter sphaeroides, UniProt Q3J144+Q3J145)
T1 construct: gene pucA; native untagged complex purified from Rba. sphaeroides B7 membranes in LDAO; nonamer of αβ heterodimers; alpha N-terminal carboxymethionine; beta C-terminus Gly51
Experiment: cryo-EM structure ([…] Å)
Type: binding
Conditions: one carotenoid per αβ heterodimer (9 per nonamer); native bound pigment; pH 7.8, LDAO

T1 sequence (Q3J145 whole entry): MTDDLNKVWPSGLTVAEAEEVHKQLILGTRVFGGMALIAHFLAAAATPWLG
T1 sequence (Q3J144 1-50): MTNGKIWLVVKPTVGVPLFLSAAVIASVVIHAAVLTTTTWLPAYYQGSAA

SMILES: COC(C)(C)C/C=C/C(C)=C/C=C/C(C)=C/C=C/C(C)=C/C=C/C=C(C)/C=C/C=C(\C)CC/C=C(\C)CCC=C(C)C [spheroidene]
- cryo-EM structure (2.1 Å): the carotenoid spheroidene adopts an all-trans conformation as it winds through the LH2 complex
